Test results from patent US11465980B2, “6-membered aza-heterocyclic containing delta-opioid receptor modulating compounds, methods of using and making the same” (Trevena, Inc., priority 2015, dated 2022).

What was measured:
adult male C57 mice = experiment: Tail suspension test (TST); format: in vivo, mouse; conditions: route sc, po; p < 0.05 compared to vehicle-treated mice
Description: The experiments were performed using adult male C57 mice (6-10 weeks of age, 20-30 g, Hilltop Lab, PA). The mice were housed in standard rodent cages with stainless steel mesh wire bar lids in groups of 4 with controlled temperature and light cycle (6:00 a.m.-6:00 p.m.). Animals were given free access to food (Harlan Teklad Global 18% protein (Madison, Wis.)) and water during a minimum 2-day habituation period to the laboratory. Animals that were used in the study were handled, housed, and sacrificed (using compressed CO2) in accord with the current NIH guidelines regarding the use and care of laboratory animals, and all applicable local, state, and federal regulations and guidelines. Animals are identified by cage number, and by markings applied to the proximal tip of the tail using a permanent marker. Group sizes (n=8, and therefore 30-50 animals per study) provide reliable estimates of treatment effects, and this species and strain of mouse has been recognized as appropriate for pharmacology studies.
To measure efficacy of the compounds the compounds were tested using a tail suspension test. The tail suspension test is a behavioral test used to evaluate the efficacy of antidepressant drugs in rodents. In the TST, mice (n=8/group) were suspended by the tail with tape approximately 30-50 cm above the lab bench. Mice are positioned such that the base of their tail is perpendicular to the lab bench. Each mouse is given 1 trial that last 6 minutes. The total duration of immobility is calculated as the percentage of time that the mouse is immobile. The duration of immobility is the main parameter measured. This is calculated from the cumulated time during which the animals is absent of initiated movements including passive swaying. When antidepressant drugs are administered, immobility is decreased by a variety of classes of antidepressant drugs. One or more of the compounds show antidepressant activity.

mouse = experiment: Tactile allodynia produced by intraplantar Freund's Complete Adjuvant, von Frey (mouse); format: in vivo; conditions: route sc, p < 0.05 vs vehicle
Description: (§1) Animals were acclimated to the vivarium for at least 48 hr prior to behavioral testing. Inflammation was induced for both rodent species with the administration of an intraplantar (subcutaneous injection into the plantar surface of the hind paw, i.pl.) injection of 0.10 ml Freund's Complete Adjuvant (FCA).
For mouse studies, the experiments were conducted 48 hours after FCA administration. Tactile allodynia was measured using a series of von Frey monofilaments. These filaments are bendable, plastic and intended to poke, not penetrate, the skin. Animals were placed in a Plexiglas chamber (approximately 10 cm×20 cm×25 cm) and allowed to habituate for 5-10 minutes. The chamber was positioned on top of a mesh screen so that von Frey monofilaments can be presented to the plantar surface of the hind paw that is inflamed. The measurement of tactile sensitivity for the injected hind paw is obtained using the up/down method (LaBuda and Little, 2005, J Neurosci. Methods, 144, 175) with […]. Each trial will start with a von Frey force of 0.6 grams delivered to the hind paw for approximately 1-2 seconds. If there was no withdrawal response, the next higher force was be delivered. If there was a response, the next lower force was delivered. This procedure was performed until no response was made at the highest force (2 grams) or until four stimuli are administered following the initial response. The 50% paw withdrawal threshold for the hind paw was be calculated using the following formula: [Xth]log=[vFi]log+ky where [vFr] is the force of the last von Frey used, k is the average interval (in log units) between the von Frey monofilaments, and y is a value that depends upon the pattern of withdrawal responses (Dixon, Annual Review Pharmacol Toxicol, 1980, 20, 441).

rat [1] = experiment: Mechanical allodynia after Freund's Complete Adjuvant, Randall-Selitto (rat); format: in vivo; conditions: route sc, p < 0.05 vs vehicle
Description: as §1
For rat studies, the experiments were conducted 24 hours after CFA administration. Rats are tested for mechanical allodynia in a Randall-Selitto apparatus. The inflamed paw is put on a pedestal and a pointed force of increasing intensity (0 to 250 grams) is applied to the paw. When the animal struggles to withdraw from the force the test is stopped and the force to induce that struggle is recorded. Data may be presented as mean grams of force to withdrawal or a percentage of the maximum possible effect.

rat [2] = experiment: Hemilesioned rat 6-OHDA model (bar, drag, rotarod tests); format: in vivo; conditions: route sc, p < 0.05 vs vehicle
Description: Compounds were tested for efficacy in reversing akinesia and bradykinesia in two well accepted rodent Parkinson's disease (PD) models; the haloperidol-induced rat catalepsy and 6-OHDA rat hemiparkinson lesion models.
In the hemilesioned rat 6-OHDA model, the effect of compound on the akinetic response to lesioning of the contralateral forepaw in the bar test and stepping activity as measured by the drag test were determined. […] This assay examines efficacy for reversing PD motor symptoms (i.e. akinesia/bradykinesia and gait abilities). The behavioral readouts will include immobility time in the bar test (akinesia), number of steps in the drag test (akinesia/bradykinesia) and time spent on rod in the rotarod test (overall gait ability, gross motor behavior). Compounds were administered subcutaneously and efficacy was evaluated between 30 and 90 min post dose.

male c57bl6J mice [3] = experiment: Reversal of tactile allodynia produced by repeat dosing of sumatriptan (medication overuse headache); format: in vivo, mouse; conditions: 10 mg/kg s.c., 30 min prior to testing; sumatriptan 0.6 mg/kg i.p. daily for 11 days; FIG. 3
Description: Compounds were evaluated for their ability to treat Medication Overuse Headache (“MOH”). Assessment of reversal of tactile allodynia produced by repeat dosing of sumatriptan in mice: Mice (44 male c57bl6J mice, n=8-9/group) were habituated for 2 days on testing rack prior to injections. Mice were treated with vehicle (VEH-VEH (saline) VEH-B1049 (10% BCD-saline)) or sumatriptan (SUMA) (0.6 mg/kg, i.p.) daily for 11 days. Mechanical sensitivity was measured as the 50% withdrawal threshold to manual von Frey hair stimulation on day 12. Baseline measurement were taken 24 hours after final SUMA/VEH injection and 3 h later, post-drug measurements were taken after dosing with B1049 (10 mg/kg, s.c., 30 min prior to testing) or SNC80 (10 mg/kg, i.p., 45 min prior to testing). (***p<0.001 compared to post-drug SUMA-VEH). The results are illustrated in FIG. 3.

male c57bl6J mice [4] = experiment: Reversal of opioid-induced hyperalgesia (morphine); format: in vivo, mouse; conditions: 10 mg/kg s.c., 30 min prior to testing; morphine twice daily for 4 days; FIG. 4
Description: Next it was determined that B1049 could reverse opioid-induced hyperalgesia. Mice (44 male c57bl6J mice, n=8-9/group) were habituated for 2 days on testing rack prior to injections. Mice were treated with vehicle (VEH-VEH (saline), VEH-B1049 (10% BCD-saline)) or morphine (MORPH) (20 mg/kg, s.c. days 1-3, 40 mg/kg s.c. day 4) twice daily (9 a.m. and 5 p.m.) for 4 days. Mechanical sensitivity was measured as the 50% withdrawal threshold to manual von Frey hair stimulation on day 5. Baseline measurement were taken 16 hours after final MORPH/VEH injection and 3 h later, post-drug measurements were taken after dosing with B1049 (10 mg/kg, s.c., 30 min prior to testing) or SNC80 (10 mg/kg, i.p., 45 min prior to testing). (***p<0.001 compared to post-drug SUMA-VEH). The results are illustrated in FIG. 4.

COCCOc1cccc([C@@H]2CCN(CCn3cccc3)[C@H](C)[C@H]2COc2ccc3c(c2)C(=O)NC3)c1 (relative stereo) [Compound B1049, (−)-6-{[(trans, trans)-4-[3-(2-methoxyethoxy)phenyl]-2-methyl-1-[2-(1H-pyrrol-1-yl)ethyl]piperidin-3-yl]methoxy}-2,3-dihydro-1H-isoindol-1-one] was tested, and the “Active TST Dose” value (adult male C57 mice) was no more than 30 mg/kg, the “Active CFA Dose” value (mouse) was no more than 10 mg/kg and the “Active CFA Dose” value (rat [1]) was no more than 10 mg/kg. The “Active Dose (hemilesioned rat 6-OHDA model)” value (rat [2]) was no more than 30 mg/kg, the “reversal of tactile allodynia produced by repeat dosing of sumatriptan” value (male c57bl6J mice [3]) was “able to reverse tactile allodynia produced by repeat dosing of sumatriptan” and the “reversal of opioid induced hyperalgesia” value (male c57bl6J mice [4]) was “able to reverse opioid induced hyperalgesia”.
